Experiments:
[1] = tested on: control sera (pooled serum of ten healthy LUMC hospital workers; commercial negative donor pooled serum from the Dutch bloodbank); format: binding, human; parameters: Binding of Control serum LUMC to linear peptides / Binding of Control serum Blood-bank to linear peptides / Binding of Control serum LUMC to looped peptides / Binding of Control Serum Blood-Bank to Looped peptides / Binding of Control serum LUMC to linear peptides of the protein M of SARS-CoV Urbani / Binding of Control serum Blood-bank to linear peptides of the protein M of SARS-CoV Urbani / Binding of Control serum LUMC to looped peptides of the protein M of SARS-CoV Urbani / Binding of Control Serum Blood-Bank to Looped peptides of the protein M of SARS-CoV Urbani: unit not given here
[2] = tested on: antibodies in sera from SARS patients (sera 1a, 1b, 2, 6, 37, 62, London, SARS-yellow, SARS-green); format: binding, human; parameters: Binding of serum 6 to linear peptides of protein X1 of SARS-CoV Urbani / Binding of serum 37 to linear peptides of protein X1 of SARS-CoV Urbani / Binding of serum 6 to looped/cyclic peptide (PEPSCAN-ELISA) / Binding of serum 37 to looped/cyclic peptide (PEPSCAN-ELISA) / Binding of serum 37 to looped/cyclic peptides of protein X1 of SARS-CoV Urbani / Binding of serum 6 to linear peptides of protein X2 / Binding of serum 37 to linear peptides of protein X2 / Binding of serum 37 to looped/cyclic peptides of protein X2 of SARS-CoV Urbani / Binding of serum 6 to linear peptides of protein M of SARS-CoV Urbani / Binding of serum 37 to linear peptides of protein M of SARS-CoV Urbani / Binding of serum 6 to looped/cyclic peptides of protein M of SARS-CoV Urbani / Binding of serum 37 to looped/cyclic peptides of protein M of SARS-CoV Urbani / Binding of serum 6 to linear peptides of protein X3 of SARS-CoV Urbani / Binding of serum 37 to linear peptides of protein X3 of SARS-CoV Urbani / Binding of serum 37 to looped/cyclic peptides of protein X3 of SARS-CoV Urbani / Binding of serum 6 to linear peptides of protein X4 of SARS-CoV Urbani / Binding of serum 37 to linear peptides of protein X4 of SARS-CoV Urbani / Binding of serum 37 to looped/cyclic peptides of protein X4 of SARS-CoV Urbani / Binding of serum 6 to linear peptides of protein X5 of SARS-CoV Urbani / Binding of serum 37 to linear peptides of protein X5 of SARS-CoV Urbani / Binding of serum 37 to looped/cyclic peptides of protein X5 of SARS-CoV Urbani / Binding of serum 6 to linear peptides of protein N of SARS-CoV Urbani / Binding of serum 37 to linear peptides of protein N of SARS-CoV Urbani / Binding of serum 6 to linear peptide (PEPSCAN-ELISA) / Binding of serum 1a to looped/cyclic peptides of protein N of SARS-CoV Urbani / Binding of serum 1b to looped/cyclic peptides of protein N of SARS-CoV Urbani / Binding of serum 2 to looped/cyclic peptides of protein N of SARS-CoV Urbani / Binding of serum 6 to looped/cyclic peptides of protein N of SARS-CoV Urbani / Binding of serum 37 to looped/cyclic peptides of protein N of SARS-CoV Urbani / Binding of serum 62 to looped/cyclic peptides of protein N of SARS-CoV Urbani / Binding of serum London to looped/cyclic peptides of protein N of SARS-CoV Urbani / Binding of serum SARS-green to looped/cyclic peptides of protein N of SARS-CoV Urbani: unit not given here
[3] = tested on: rabbit serum obtained by immunizing a rabbit with the SARS-CoV strain Frankfurt 1; format: binding; parameters: Binding of a rabbit serum to linear peptides / Binding of a rabbit serum to looped peptides / Rabbit serum linear peptides / Rabbit serum looped peptides / Binding of a rabbit serum to linear peptides of protein N of SARS-CoV Urbani (Rabbit serum linear peptides) / Binding of a rabbit serum to looped/cyclic peptides of protein N of SARS-CoV Urbani (Rabbit serum looped peptides): unit not given here

VQIHTIDGSSGVANP
Binding of Control Serum Blood-Bank to Looped peptides [1]: 0.3
Binding of Control serum Blood-bank to linear peptides [1]: 0.5
Binding of Control serum LUMC to linear peptides [1]: 0.5
Binding of Control serum LUMC to looped peptides [1]: 0.4
Binding of serum 1a to linear peptides of protein X1 of SARS-CoV Urbani [2]: 0.7
Binding of serum 1a to looped/cyclic peptides of protein X1 of SARS-CoV Urbani [2]: 0.4
Binding of serum 1b to linear peptides of protein X1 of SARS-CoV Urbani [2]: 0.5
Binding of serum 1b to looped/cyclic peptides of protein X1 of SARS-CoV Urbani [2]: 0.4
Binding of serum 2 to linear peptides of protein X1 of SARS-CoV Urbani [2]: 0.6
Binding of serum 2 to looped/cyclic peptides of protein X1 of SARS-CoV Urbani [2]: 0.3
Binding of serum 6 to linear peptides of protein X1 of SARS-CoV Urbani [2]: 0.6
Binding of serum 6 to looped/cyclic peptides of protein X1 of SARS-CoV Urbani [2]: 0.3
Binding of serum 37 to linear peptides of protein X1 of SARS-CoV Urbani [2]: 0.7
Binding of serum 37 to looped/cyclic peptides of protein X1 of SARS-CoV Urbani [2]: 0.4
Binding of serum 62 to linear peptides of protein X1 of SARS-CoV Urbani [2]: 0.6
Binding of serum 62 to looped/cyclic peptides of protein X1 of SARS-CoV Urbani [2]: 0.5
Binding of serum London to linear peptides of protein X1 of SARS-CoV Urbani [2]: 0.3
Binding of serum London to looped/cyclic peptides of protein X1 of SARS-CoV Urbani [2]: 0.2
Binding of serum SARS-green to linear peptides of protein X1 of SARS-CoV Urbani [2]: 0.2
Binding of serum SARS-green to looped/cyclic peptides of protein X1 of SARS-CoV Urbani [2]: 0.3
Binding of serum SARS-yellow to linear peptides of protein X1 of SARS-CoV Urbani [2]: 0.4
Binding of serum SARS-yellow to looped/cyclic peptides of protein X1 of SARS-CoV Urbani [2]: 0.1
Binding of a rabbit serum to linear peptides [3]: 0.1
Binding of a rabbit serum to looped peptides [3]: 0.4

VQTCTPNVTINCQDP
Binding of Control Serum Blood-Bank to Looped peptides [1]: 0.6
Binding of Control serum Blood-bank to linear peptides [1]: 0.6
Binding of Control serum LUMC to linear peptides [1]: 0.5
Binding of Control serum LUMC to looped peptides [1]: 0.4
Binding of serum 1a to linear peptides of protein X5 of SARS-CoV Urbani [2]: 0.7
Binding of serum 1a to looped/cyclic peptides of protein X5 of SARS-CoV Urbani [2]: 0.6
Binding of serum 1b to linear peptides of protein X5 of SARS-CoV Urbani [2]: 0.8
Binding of serum 1b to looped/cyclic peptides of protein X5 of SARS-CoV Urbani [2]: 0.5
Binding of serum 2 to linear peptides of protein X5 of SARS-CoV Urbani [2]: 0.7
Binding of serum 2 to looped/cyclic peptides of protein X5 of SARS-CoV Urbani [2]: 0.7
Binding of serum 6 to linear peptides of protein X5 of SARS-CoV Urbani [2]: 0.8
Binding of serum 6 to looped/cyclic peptides of protein X5 of SARS-CoV Urbani [2]: 0.2
Binding of serum 37 to linear peptides of protein X5 of SARS-CoV Urbani [2]: 0.7
Binding of serum 37 to looped/cyclic peptides of protein X5 of SARS-CoV Urbani [2]: 0.6
Binding of serum 62 to linear peptides of protein X5 of SARS-CoV Urbani [2]: 0.8
Binding of serum 62 to looped/cyclic peptides of protein X5 of SARS-CoV Urbani [2]: 0.6
Binding of serum London to linear peptides of protein X5 of SARS-CoV Urbani [2]: 0.8
Binding of serum London to looped/cyclic peptides of protein X5 of SARS-CoV Urbani [2]: 0.3
Binding of serum SARS-green to linear peptides of protein X5 of SARS-CoV Urbani [2]: 0.7
Binding of serum SARS-green to looped/cyclic peptides of protein X5 of SARS-CoV Urbani [2]: 0.3
Binding of serum SARS-yellow to linear peptides of protein X5 of SARS-CoV Urbani [2]: 0.3
Binding of serum SARS-yellow to looped/cyclic peptides of protein X5 of SARS-CoV Urbani [2]: 0.3
Rabbit serum linear peptides [3]: 0.5
Rabbit serum looped peptides [3]: 0.4

VSPKLFIRQEEVQQE
Binding of Control Serum Blood-Bank to Looped peptides [1]: 0.4
Binding of Control serum Blood-bank to linear peptides [1]: 0.5
Binding of Control serum LUMC to linear peptides [1]: 0.4
Binding of Control serum LUMC to looped peptides [1]: 0.7
Binding of serum 1a to linear peptides of protein X4 of SARS-CoV Urbani [2]: 0.7
Binding of serum 1a to looped/cyclic peptides of protein X4 of SARS-CoV Urbani [2]: 0.6
Binding of serum 1b to linear peptides of protein X4 of SARS-CoV Urbani [2]: 0.5
Binding of serum 1b to looped/cyclic peptides of protein X4 of SARS-CoV Urbani [2]: 1.0
Binding of serum 2 to linear peptides of protein X4 of SARS-CoV Urbani [2]: 0.3
Binding of serum 2 to looped/cyclic peptides of protein X4 of SARS-CoV Urbani [2]: 0.8
Binding of serum 6 to linear peptides of protein X4 of SARS-CoV Urbani [2]: 0.3
Binding of serum 6 to looped/cyclic peptides of protein X4 of SARS-CoV Urbani [2]: 0.4
Binding of serum 37 to linear peptides of protein X4 of SARS-CoV Urbani [2]: 0.7
Binding of serum 37 to looped/cyclic peptides of protein X4 of SARS-CoV Urbani [2]: 0.9
Binding of serum 62 to linear peptides of protein X4 of SARS-CoV Urbani [2]: 0.7
Binding of serum 62 to looped/cyclic peptides of protein X4 of SARS-CoV Urbani [2]: 0.8
Binding of serum London to linear peptides of protein X4 of SARS-CoV Urbani [2]: 0.8
Binding of serum London to looped/cyclic peptides of protein X4 of SARS-CoV Urbani [2]: 0.6
Binding of serum SARS-green to linear peptides of protein X4 of SARS-CoV Urbani [2]: 0.6
Binding of serum SARS-green to looped/cyclic peptides of protein X4 of SARS-CoV Urbani [2]: 1.2
Binding of serum SARS-yellow to linear peptides of protein X4 of SARS-CoV Urbani [2]: 0.3
Binding of serum SARS-yellow to looped/cyclic peptides of protein X4 of SARS-CoV Urbani [2]: 0.5
Rabbit serum linear peptides [3]: 0.4
Rabbit serum looped peptides [3]: 0.3

VSTNLCTHSFRKKQV
Binding of Control Serum Blood-Bank to Looped peptides [1]: 0.5
Binding of Control serum Blood-bank to linear peptides [1]: 0.8
Binding of Control serum LUMC to linear peptides [1]: 0.6
Binding of Control serum LUMC to looped peptides [1]: 0.7
Binding of serum 1a to looped/cyclic peptides of protein X2 of SARS-CoV Urbani [2]: 0.5
Binding of serum 1b to looped/cyclic peptides of protein X2 of SARS-CoV Urbani [2]: 0.3
Binding of serum 2 to looped/cyclic peptides of protein X2 of SARS-CoV Urbani [2]: 0.6
Binding of serum 6 to looped/cyclic peptides of protein X2 of SARS-CoV Urbani [2]: 0.5
Binding of serum 37 to looped/cyclic peptides of protein X2 of SARS-CoV Urbani [2]: 0.5
Binding of serum 62 to looped/cyclic peptides of protein X2 of SARS-CoV Urbani [2]: 0.6
Binding of serum London to looped/cyclic peptides of protein X2 of SARS-CoV Urbani [2]: 0.1
Binding of serum SARS-green to looped/cyclic peptides of protein X2 of SARS-CoV Urbani [2]: 0.3
Binding of serum SARS-yellow to looped/cyclic peptides of protein X2 of SARS-CoV Urbani [2]: 0.4
Recognition of the peptide by sera of SARS-CoV infected individuals, and form (linear, looped/cyclic) in which it is recognized [2]: recognized in linear form
Binding of a rabbit serum to linear peptides [3]: 0.3
Binding of a rabbit serum to looped peptides [3]: 0.2

VTDTIVVTEGDGIST
Binding of Control Serum Blood-Bank to Looped peptides [1]: 0.4
Binding of Control serum Blood-bank to linear peptides [1]: 0.4
Binding of Control serum LUMC to linear peptides [1]: 0.4
Binding of Control serum LUMC to looped peptides [1]: 0.4
Binding of serum 1a to linear peptides of protein X1 of SARS-CoV Urbani [2]: 0.6
Binding of serum 1a to looped/cyclic peptides of protein X1 of SARS-CoV Urbani [2]: 0.4
Binding of serum 1b to linear peptides of protein X1 of SARS-CoV Urbani [2]: 0.5
Binding of serum 1b to looped/cyclic peptides of protein X1 of SARS-CoV Urbani [2]: 0.3
Binding of serum 2 to linear peptides of protein X1 of SARS-CoV Urbani [2]: 0.3
Binding of serum 2 to looped/cyclic peptides of protein X1 of SARS-CoV Urbani [2]: 0.2
Binding of serum 6 to linear peptides of protein X1 of SARS-CoV Urbani [2]: 0.4
Binding of serum 6 to looped/cyclic peptides of protein X1 of SARS-CoV Urbani [2]: 0.1
Binding of serum 37 to linear peptides of protein X1 of SARS-CoV Urbani [2]: 0.5
Binding of serum 37 to looped/cyclic peptides of protein X1 of SARS-CoV Urbani [2]: 0.4
Binding of serum 62 to linear peptides of protein X1 of SARS-CoV Urbani [2]: 0.4
Binding of serum 62 to looped/cyclic peptides of protein X1 of SARS-CoV Urbani [2]: 0.4
Binding of serum London to linear peptides of protein X1 of SARS-CoV Urbani [2]: 0.2
Binding of serum London to looped/cyclic peptides of protein X1 of SARS-CoV Urbani [2]: 0.2
Binding of serum SARS-green to linear peptides of protein X1 of SARS-CoV Urbani [2]: 0.1
Binding of serum SARS-green to looped/cyclic peptides of protein X1 of SARS-CoV Urbani [2]: 0.2
Binding of serum SARS-yellow to linear peptides of protein X1 of SARS-CoV Urbani [2]: 0.3
Binding of serum SARS-yellow to looped/cyclic peptides of protein X1 of SARS-CoV Urbani [2]: 0.5
Binding of a rabbit serum to linear peptides [3]: 0.1
Binding of a rabbit serum to looped peptides [3]: 0.5

Reference: patent publication US20070128217A1 (priority 2003, published 2007)
